# How the values were obtained:
# HeLa = assay: Toxicity (EC50) in HeLa cells; format: cell-based; conditions: Homo sapiens, footnote b, read-out: EC50 values Mammal HeLa
# Excerpt: Fig 1 Labelling and detection of B-THP-T target(s). (A) Structures of chamuvarinin and simplified analogues thereof as probes used in this study and their respective toxicity in selected cell lines. Bi-functional compound 3 contains a diazirine (blue) to cross-link the compound to its target and an alkyne handle (red) to which an azide-containing reporter probe can be added. Mono-functional compound 2 contains the diazirine to cross-link to its target but lacks the alkyne handle and cannot be appended with an azide reporter probe. Lead B-THP-T, compound 1, lacks both diazirine and alkyne. The additional functional groups on compounds 2 and 3 are minor alterations, which have little effect on inhibitor potency. (B) Overview of the in vivo pulse-chase photo-affinity labelling procedure. B-THP-T were incubated with live PF T. brucei cells and trafficked to their targets. Following UV-irradiation, only compounds containing a diazirine (i.e. compounds 2 and 3) could cross-link with target proteins. The subsequent “click reaction” appended the conjugated B-THP-T with a reporter probe as long as an alkyne handle was present (i.e. on compound 3). Refer to the experimental section for details. (C) Detection of Cy5.5-tagged proteins following photo-affinity labelling. Proteins were separated by SDS-PAGE and conjugated Cy5.5 was detected at 700 nm. […]
# [1] = target: T1, FoF1-ATP synthase F1 β-subunit (GFP-PTP tagged) (Trypanosoma brucei brucei, UniProt Q9GPE9); assay: In vivo photo-affinity labelling of GFP-PTP-tagged F1 β-subunit, Cy5.5 detection; format: binding; conditions: 50 μM, in vivo pulse-chase, UV 365 nm
# T1 construct: The endogenous expression produces tagged protein at physiological levels, allowing it to be trafficked and form complexes in the same way as untagged endogenously expressed protein; expressed in transfected cells; host or cells: procyclic-form T. brucei strain 29-13, stably transfected with BsmI-linearised pC-F1β-GFP-PTP (recombination into the endogenous gene)
# Protocol: Fig 7 B-THP-Ts bind to C-terminal GFP-PTP tagged F1 α- and β- subunits. (A) Stably transfected PF T. brucei cells endogenously-expressing F1 α-GFP-PTP or F1 β-GFP-PTP were loaded with MitoTracker Red CMXros (red) and DAPI (blue) and imaged microscopically to determine localisation of GFP-PTP-tagged protein. […] (B) Following in vivo photo-affinity labelling with 50 μM compound 3 or compound 1 (negative control), GFP-PTP-tagged F1 α- and β-subunits were affinity purified and Cy5.5 clicked on. Proteins were separated by SDS-PAGE and a western blot was performed with mouse anti-GFP / anti-mouse-DyLight 800. […]
# Pulse-chase in vivo photo-affinity labelling with bi-functional compound 3 (and lead compound 1 as negative control) was performed on cells from both cell lines expressing GFP-PTP-tagged F1 α- or β-subunits. Tagged subunits were immobilised on IgG-sepharose beads, purified, and Cy5.5 fluorescent reporter clicked on, and proteins were detected by western blotting (Fig 7B). […] In trypanosomatids (but not in other organisms) the native α-subunit is expressed as a 63 KDa protein which is then cleaved by an unknown protease to 20 KDa N-terminal and 43 KDa C-terminal domains, both of which remain associated with the FoF1-ATP synthase complex. […]
# T1 sequence (Q9GPE9 22-519): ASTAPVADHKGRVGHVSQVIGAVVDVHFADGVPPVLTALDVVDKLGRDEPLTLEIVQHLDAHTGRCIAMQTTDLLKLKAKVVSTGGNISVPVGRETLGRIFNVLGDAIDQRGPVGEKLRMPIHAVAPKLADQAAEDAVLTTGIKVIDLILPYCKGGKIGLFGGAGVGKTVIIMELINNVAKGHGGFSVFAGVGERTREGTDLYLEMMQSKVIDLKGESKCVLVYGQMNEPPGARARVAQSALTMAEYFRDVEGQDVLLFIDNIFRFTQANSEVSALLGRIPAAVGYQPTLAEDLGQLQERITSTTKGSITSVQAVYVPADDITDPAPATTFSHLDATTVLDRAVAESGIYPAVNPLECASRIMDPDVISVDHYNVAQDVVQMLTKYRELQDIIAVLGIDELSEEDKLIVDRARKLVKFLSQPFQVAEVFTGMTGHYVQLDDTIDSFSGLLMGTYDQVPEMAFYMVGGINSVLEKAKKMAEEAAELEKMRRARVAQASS
structure (smiles),measurement,setting,value
C#CCNC(=O)CCC[C@H]1CC2(C[C@@H](Cn3cc([C@@H]4CCC[C@H](CCCCOCc5ccccc5)O4)nn3)O1)N=N2 [Compound 3],EC50,HeLa,21.3 ± 2 µM
same,UV-conjugation (Cy5.5 labelling at 700 nm) to F1 β-GFP-PTP,[1],can UV-conjugate

# From paper PMC5608556, “Photo-affinity labelling and biochemical analyses identify the target of trypanocidal simplified natural product analogues” (PLoS Neglected Tropical Diseases, 2017)
